The values that follow are results of earlier work, collected in patent US20230346708A1, “STABLE FORMULATIONS OF ANTI-CANCER PEPTIDES” (Oncolyze, Inc., priority 2020, published 2023).

In this series the test system is cancer cells. As to conditions: cancer cells vs normal cells; general statement, no data shown.

As for “ETFSDLWKLLKKWKMRRNQFWVKVQRG [PNC-28, p53 aa17-26-MRP anti-cancer peptide]”, the Tumor cell necrosis entry is “induce tumor cell necrosis of cancer cells, but not normal cells”.
